This is an account of results in publication PMC7822065, “Discovery of indole-3-butyric acid derivatives as potent histone deacetylase inhibitors” (Journal of Enzyme Inhibition and Medicinal Chemistry, 2021).

Molecules are shown by their SMILES.

As a reminder, the IC50 is the concentration that gives 50% inhibition.

In experiment [1] the test system is HDACs (HeLa nucleus extract containing a mixture of HDAC isoforms). The experiment in a line: HDAC inhibitory assay with HeLa nucleus extract. The settings on record: at the concentration of 1 µM.
Another experiment has as its system U266 cells. The experiment in a line: MTT antiproliferative assay, U266. The settings on record: Homo sapiens, U-266, 48 h, read-out: U266 IC50.
For another experiment, the system named is HepG2 cells. The experiment in a line: MTT antiproliferative assay, HepG2. The conditions noted are these: Homo sapiens, HepG2, 48 h, read-out: HepG2 IC50. Background: Formazan colour is commonly taken as a measure of viable cells.
In a further experiment the test system is U937 cells. The experiment in a line: MTT antiproliferative assay, U937. The settings on record: Homo sapiens, U-937, 48 h, read-out: U937 IC50.

Experimental for HepG2 cells: (§1) The stock solutions of tested compounds were diluted with culture medium. […] Then, the cells were treated with compound sample at various concentrations for 48 h. Afterward, 20 MTT working solution (5 mg/ml) was added to each well and incubated for another 4 h. After incubation, the medium formed from MTT was extracted by adding DMSO (200 µl). The optical density (OD) at 490 nm and 630 nm were measured by Universal Microplate Spectrophotometer. […] The IC50 values were calculated with Origin 7.5 software (Originlab Corporation, Northampton, MA), and standard deviations of the IC50 values were obtained through at least 3 independent experiments.
Experimental for U266 cells: as §1
To evaluate the antiproliferative activity of hydroxamic acid containing molecules, MTT assays were performed using U937, U266, and HepG2 cell lines.
Experimental for U937 cells: as §1

`CCCNNC(=O)c1ccc(NC(=O)CCCc2c[nH]c3ccccc23)cc1` [Compound I1e2, 4-(1H-Indol-3-yl)-N-[4-(N′-propyl-hydrazinocarbonyl)-phenyl]-butyramide]: in experiment [1], the “HDACs, percentage inhibition rate (PIR)” value stood at 61.34 ± 3.56%. For the same compound, the IC50 with U266 cells is 640 ± 20 nM.
Regarding `CCn1cc(CCCC(=O)Nc2ccc(C(=O)NO)cc2)c2ccccc21` [Compound I3, 4-(4-(1-Ethyl-1H-indol-3-yl)butanamido)-N-hydroxybenzamide], the “HDACs, percentage inhibition rate (PIR)” value in experiment [1] was determined as 78.94 ± 2.34%. Also, the IC50 with HepG2 cells came to 1920 ± 50 nM; in the experiment with U937 cells, 940 ± 40 nM; in the experiment on U266 cells it was 240 ± 30 nM.
For the compound `O=C(CCCc1cn(Cc2ccccc2C(F)(F)F)c2ccccc12)Nc1ccc(C(=O)NO)cc1` [Compound I5, 4-(4-(1-(2-Trifluoromethyl-benzyl)-1H-indol-3-yl)butanamido)-N-hydroxybenzamide], the “HDACs, percentage inhibition rate (PIR)” value in experiment [1] turned out to be 19.30 ± 1.60%. Besides, the half-inhibitory concentration (IC50) in the experiment on HepG2 cells was found to be 6170 ± 210 nM; with U937 cells it was 4420 ± 180 nM; in the experiment on U266 cells it was 880 ± 70 nM.
Take `CCCNNC(=O)c1ccc(NC(=O)CCCc2cn(Cc3c(F)cccc3F)c3ccccc23)cc1` [Compound I10e2, 4-[1-(2,6-Difluoro-benzyl)-1H-indol-3-yl]-N-[4-(N′-propyl-hydrazinocarbonyl)-phenyl]-butyramide]: in experiment [1], the “HDACs, percentage inhibition rate (PIR)” value came out at 46.85 ± 2.06%. Further, in the experiment with U266 cells, the half-maximal inhibitory concentration (IC50) is 740 ± 50 nM.
In the case of `CCCCn1cc(CCCC(=O)Nc2ccc(C(=O)NO)cc2)c2ccccc21` [Compound I12, 4-(4-(1-Butyl-1H-indol-3-yl)butanamido)-N-hydroxybenzamide], the “HDACs, percentage inhibition rate (PIR)” value in experiment [1] is reported as 62.70 ± 1.63%. In addition, the concentration for half-maximal inhibition (IC50) in the experiment on HepG2 cells amounted to 5760 ± 650 nM; with U937 cells, 1010 ± 30 nM; in the experiment with U266 cells, 120 ± 20 nM.
As for `O=C(CCCc1cn(Cc2ccc(F)c(F)c2)c2ccccc12)Nc1ccc(C(=O)NO)cc1` [Compound I6, 4-(4-(1-(3,4-Difluoro-benzyl)-1H-indol-3-yl)butanamido)-N-hydroxybenzamide], the “HDACs, percentage inhibition rate (PIR)” value in experiment [1] stood at 16.14 ± 1.07%. For the same compound, the half-inhibitory concentration (IC50) with HepG2 cells worked out at 7720 ± 340 nM; in the experiment on U937 cells, 1250 ± 210 nM; in the experiment on U266 cells, 820 ± 60 nM.
For `O=C(CCCc1cn(Cc2cccc(Cl)c2)c2ccccc12)Nc1ccc(C(=O)NO)cc1` [Compound I9, 4-(4-(1-(3-Chloro-benzyl)-1H-indol-3-yl)butanamido)-N-hydroxybenzamide], in that order: 56.68 ± 2.42%, 5670 ± 60 nM, 1000 ± 150 nM and 650 ± 40 nM.
With `O=C(CCCc1c[nH]c2ccccc12)Nc1ccc(C(=O)NO)cc1` [Compound I1, 4-(4-(1H-indol-3-yl)butanamido)-N-hydroxybenzamide], the “HDACs, percentage inhibition rate (PIR)” value in experiment [1] is 53.81 ± 1.60%. Besides, the concentration for half-maximal inhibition (IC50) in the experiment with HepG2 cells worked out at 8980 ± 160 nM; with U937 cells, 1020 ± 130 nM; in the experiment with U266 cells, 840 ± 90 nM.
In the case of `O=C(CCCc1cn(Cc2cc(C(F)(F)F)cc(C(F)(F)F)c2)c2ccccc12)Nc1ccc(C(=O)NO)cc1` [Compound I11, 4-(4-(1-(3,5-Bis-trifluoromethyl-benzyl)-1H-indol-3-yl)butanamido)-N-hydroxybenzamide], the “HDACs, percentage inhibition rate (PIR)” value in experiment [1] was found to be 52.24 ± 1.10%. Further, the IC50 worked out at 4760 ± 610 nM in the experiment with HepG2 cells, 4580 ± 230 nM in the experiment on U937 cells and 740 ± 50 nM in the experiment on U266 cells.
For `O=C(CCCc1cn(Cc2cccc(F)c2)c2ccccc12)Nc1ccc(C(=O)NO)cc1` [Compound I7, 4-(4-(1-(3-Fluoro-benzyl)-1H-indol-3-yl)butanamido)-N-hydroxybenzamide], in that order: 46.17 ± 2.94%, 4870 ± 120 nM, 950 ± 10 nM and 840 ± 60 nM.
In the case of `CCCCNNC(=O)c1ccc(NC(=O)CCCc2cn(CCCC)c3ccccc23)cc1` [Compound I12e3, N-[4-(N′-Butyl-hydrazinocarbonyl)-phenyl]-4-(1-butyl-1H-indol-3-yl)-butyramide], the “HDACs, percentage inhibition rate (PIR)” value in experiment [1] is given as 42.76 ± 1.56%. Moreover, the IC50 in the experiment on U266 cells is 1440 ± 310 nM.
For the compound `O=C(CCCc1cn(Cc2c(F)cccc2F)c2ccccc12)Nc1ccc(C(=O)NO)cc1` [Compound I10, 4-(4-(1-(2,6-Difluoro-benzyl)-1H-indol-3-yl)butanamido)-N-hydroxybenzamide], the “HDACs, percentage inhibition rate (PIR)” value in experiment [1] amounted to 79.10 ± 4.65%. Besides, the half-inhibitory concentration (IC50) is 3390 ± 250 nM with HepG2 cells, 630 ± 70 nM in the experiment with U937 cells and 160 ± 70 nM with U266 cells.
For `O=C(CCCc1cn(Cc2cccc(Br)c2)c2ccccc12)Nc1ccc(C(=O)NO)cc1` [Compound I8, 4-(4-(1-(3-Bromo-benzyl)-1H-indol-3-yl)butanamido)-N-hydroxybenzamide], the “HDACs, percentage inhibition rate (PIR)” value in experiment [1] came to 15.87 ± 3.27%. Moreover, the IC50 in the experiment on HepG2 cells is 6450 ± 280 nM; in the experiment on U937 cells, 1940 ± 170 nM; with U266 cells it was 710 ± 60 nM.
As for `CCCNNC(=O)c1ccc(NC(=O)CCCc2cn(Cc3ccccc3)c3ccccc23)cc1` [Compound I2e2, 4-(1-Benzyl-1H-indol-3-yl)-N-[4-(N′-propyl-hydrazinocarbonyl)-phenyl]-butyramide], the “HDACs, percentage inhibition rate (PIR)” value in experiment [1] (1 µM) was 57.46 ± 2.06%. In addition, the IC50 in the experiment on U266 cells turned out to be 1110 ± 80 nM.
As for `CCCNNC(=O)c1ccc(NC(=O)CCCc2cn(Cc3cccc(F)c3)c3ccccc23)cc1` [Compound I7e2, 4-[1-(3-Fluoro-benzyl)-1H-indol-3-yl]-N-[4-(N′-propyl-hydrazinocarbonyl)-phenyl]-butyramide], the “HDACs, percentage inhibition rate (PIR)” value in experiment [1] is on record as 30.45 ± 3.38%. Besides, the IC50 in the experiment on U266 cells was 1320 ± 80 nM.
In the case of `CCCCNNC(=O)c1ccc(NC(=O)CCCc2c[nH]c3ccccc23)cc1` [Compound I1e3, N-[4-(N′-Butyl-hydrazinocarbonyl)-phenyl]-4-(1H-indol-3-yl)-butyramide], in experiment [1], the “HDACs, percentage inhibition rate (PIR)” value was 30.47 ± 1.17%. Moreover, the IC50 in the experiment on U266 cells is 1060 ± 50 nM.
In the case of `CCCCNNC(=O)c1ccc(NC(=O)CCCc2cn(CC)c3ccccc23)cc1` [Compound I3e3, N-[4-(N′-Butyl-hydrazinocarbonyl)-phenyl]-4-(1-ethyl-1H-indol-3-yl)-butyramide], the “HDACs, percentage inhibition rate (PIR)” value in experiment [1] turned out to be 31.94 ± 1.51%. The half-maximal inhibitory concentration (IC50) in the experiment with U266 cells is 1450 ± 100 nM.
As to `CCCCNNC(=O)c1ccc(NC(=O)CCCc2cn(Cc3ccccc3)c3ccccc23)cc1` [Compound I2e3, 4-(1-Benzyl-1H-indol-3-yl)-N-[4-(N′-butyl-hydrazinocarbonyl)-phenyl]-butyramide], the “HDACs, percentage inhibition rate (PIR)” value in experiment [1] amounted to 51.41 ± 2.78%. Moreover, the IC50 in the experiment on U266 cells is 1710 ± 70 nM.
Consider `O=C(CCCc1cn(Cc2ccccc2)c2ccccc12)Nc1ccc(C(=O)NO)cc1` [Compound I2, 4-(4-(1-benzyl-1H-indol-3-yl)butanamido)-N-hydroxybenzamide], for which the “HDACs, percentage inhibition rate (PIR)” value in experiment [1] turned out to be 78.94 ± 3.41%. The IC50 in the experiment with HepG2 cells is 3630 ± 260 nM; in the experiment on U937 cells it was 950 ± 40 nM; in the experiment with U266 cells, 480 ± 90 nM.
Consider `CCCNNC(=O)c1ccc(NC(=O)CCCc2cn(C)c3ccccc23)cc1` [Compound I13e2, 4-(1-Methyl-1H-indol-3-yl)-N-[4-(N′-propyl-hydrazinocarbonyl)-phenyl]-butyramide], for which the “HDACs, percentage inhibition rate (PIR)” value in experiment [1] is given as 29.68 ± 2.06%. Further, in the experiment on U266 cells, the 50% inhibitory concentration (IC50) came to 710 ± 110 nM.
In the case of `CC(C)CNNC(=O)c1ccc(NC(=O)CCCc2c[nH]c3ccccc23)cc1` [Compound I1e4, 4-(1H-Indol-3-yl)-N-[4-(N′-isobutyl-hydrazinocarbonyl)-phenyl]-butyramide], the “HDACs, percentage inhibition rate (PIR)” value in experiment [1] turned out to be 7.16 ± 1.50%. In addition, in the experiment on U266 cells, the IC50 turned out to be 16000 ± 670 nM.
Take `CCCNNC(=O)c1ccc(NC(=O)CCCc2cn(CC)c3ccccc23)cc1` [Compound I3e2, 4-(1-Ethyl-1H-indol-3-yl)-N-[4-(N′-propyl-hydrazinocarbonyl)-phenyl]-butyramide]: the “HDACs, percentage inhibition rate (PIR)” value in experiment [1] is on record as 36.51 ± 2.93%. For the same compound, the IC50 with U266 cells came to 480 ± 100 nM.
With `CCNNC(=O)c1ccc(NC(=O)CCCc2c[nH]c3ccccc23)cc1` [Compound I1e1, N-[4-(N′-Ethyl-hydrazinocarbonyl)-phenyl]-4-(1H-indol-3-yl)-butyramide], the “HDACs, percentage inhibition rate (PIR)” value in experiment [1] stood at 50.60 ± 2.02%. Also, the IC50 in the experiment with U266 cells turned out to be 15970 ± 140 nM.
For `CCCCNNC(=O)c1ccc(NC(=O)CCCc2cn(C)c3ccccc23)cc1` [Compound I13e3, N-[4-(N′-Butyl-hydrazinocarbonyl)-phenyl]-4-(1-methyl-1H-indol-3-yl)-butyramide], in experiment [1], the “HDACs, percentage inhibition rate (PIR)” value was 32.15 ± 1.03%. The concentration for half-maximal inhibition (IC50) in the experiment on U266 cells came out at 1360 ± 60 nM.
Consider `O=C(CCCc1cn(Cc2ccc(C(F)(F)F)cc2)c2ccccc12)Nc1ccc(C(=O)NO)cc1` [Compound I4, 4-(4-(1-(4-Trifluoromethyl-benzyl)-1H-indol-3-yl)butanamido)-N-hydroxybenzamide], for which, in experiment [1], the “HDACs, percentage inhibition rate (PIR)” value was 68.50 ± 1.22%. For the same compound, the half-maximal inhibitory concentration (IC50) in the experiment with HepG2 cells was found to be 4450 ± 250 nM; in the experiment with U937 cells, 970 ± 40 nM; in the experiment with U266 cells, 960 ± 80 nM.
On to `CCCCn1cc(CCCC(=O)Nc2ccc(C(=O)NNCCC)cc2)c2ccccc21` [Compound I12e2, 4-(1-Butyl-1H-indol-3-yl)-N-[4-(N′-propyl-hydrazinocarbonyl)-phenyl]-butyramide], for which the “HDACs, percentage inhibition rate (PIR)” value in experiment [1] turned out to be 39.73 ± 1.84%. In addition, the half-inhibitory concentration (IC50) in the experiment on U266 cells is 1280 ± 120 nM.
